Measured values reported in paper PMC8787096, “Antagonism of nicotinic acetycholinergic receptors by CN‐105, an apoE‐mimetic peptide reduces stroke‐induced excitotoxicity” (Clinical and Translational Medicine, 2022).
Where two headings read alike, the source gives them in different places. Residues, ends and D or L forms follow the SMILES beside them.

Columns and labels:
α7-nAChR [1] = target: T1, α7-nAChR (Homo sapiens, UniProt P36544); assay: Patch clamp of ACh-induced currents, HEK293 cells stably expressing nAChR α7/RIC3; type: cell-based; details: for %Inhibition of α7-nAChR: peptide 200 nM, relative to currents induced by 9 μM ACh
T1 sequence (P36544 23-502): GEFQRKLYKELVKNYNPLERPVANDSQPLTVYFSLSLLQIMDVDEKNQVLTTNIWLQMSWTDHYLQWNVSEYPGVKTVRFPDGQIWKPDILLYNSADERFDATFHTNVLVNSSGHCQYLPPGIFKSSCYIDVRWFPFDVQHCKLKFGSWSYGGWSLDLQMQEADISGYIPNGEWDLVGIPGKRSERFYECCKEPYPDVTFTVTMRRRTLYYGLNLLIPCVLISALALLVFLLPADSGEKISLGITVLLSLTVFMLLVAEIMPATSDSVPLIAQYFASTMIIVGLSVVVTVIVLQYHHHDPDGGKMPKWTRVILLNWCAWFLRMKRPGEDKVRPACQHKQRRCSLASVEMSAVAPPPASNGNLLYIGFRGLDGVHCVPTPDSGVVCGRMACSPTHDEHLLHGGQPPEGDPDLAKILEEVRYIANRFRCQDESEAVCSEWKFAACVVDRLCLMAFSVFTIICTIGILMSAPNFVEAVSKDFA

C57BL6 mice = assay: Mortality of C57BL6 mice after a single tail vein injection; type: in vivo
[2] = rat, in vivo, iv
[3] = monkey, in vivo, iv
[4] = tested on: rat hippocampal brain slices; assay: EPSC recording (evoked, spontaneous, miniature) in hippocampal brain slices; type: cell-based
in vivo [5] = details: both, monkey, iv
in vivo [6] = details: both, SD, rat, iv
[7] = tested on: SD rats, transient ischemic stroke; assay: Transient middle cerebral artery occlusion (t-MCAO) model; type: in vivo, rat; details: Day 8; for Infarct volume: rat t-MCAO
Protocol: Eighty-three Sprague-Dawley (SD) rats were randomly divided into six groups with both sexes as follows: 1) sham group (n=8), 2) vehicle group (n=15), 3) 0.1 mg/kg CN105 (n=15), 4) 0.2 mg/kg CN105 (n=15), 5) 0.4 mg/kg CN-105 (n=15), 6) 6mg/kg edaravone (n=15). Ischemic insult was introduced based on pre-established protocol. Briefly, rats were placed supine under anesthesia, and then the left common carotid arteries were exposed under sterile conditions. A suture was gently inserted into the internal carotid artery through the external carotid artery until the origin of the middle cerebral artery was occluded. The suture thread was removed 90 min after the ischemia, allowing restoration of the blood supply. Animals in the sham group were exposed of the left common carotid artery under anesthesia without ischemic occlusion. A single dose of CN-105 or edaravone were administered intravenously (iv.) 30min after reperfusion. The injection volume was 5mL/kg, given in 2 min. Animals in each group were euthanized at the end of the experiment. Brains were fixed in 10% formalin. The 3 mm-thick coronal brain sections were scanned and imaged to measure the percentage of viable and infarction brain tissue to calculate the percentage of cerebral infarction volume.

AMPA receptor = assay: Glutamate-induced currents of AMPA receptor in primary hippocampal neuronal cultures; type: cell-based; details: primary rat hippocampal neuronal cultures
Protocol: Rat primary neuronal culture: Primary neuron cultures were prepared from newborn rats. A mixed culture of hippocampal, cortical and thalamic neurons was used for calcium imaging assays. For patch clamp studies, hippocampal neurons from the CA1 region were extracted. The trypsinized brain tissue was incubated at 37°C for 20 minutes before the removal of the enzyme. The cells were washed three times with PBS and suspended with fresh media before being plated on poly-D-lysine-coated coverslips. After 4 h, the media was replaced by Neurobasal+B27+L-Glu (Thermo scientific, USA). Half of the culture medium was changed after 24 h before switched to a 72-hr medium change routine.
(§1) Figure S5. Amperograms of CN-105's effect on GluR (AMPA-R) in primary rat hippocampal neuronal cultures (Left) and on GluN (NMDA-R) in a culture of HEK293 cells stably expressing NMDA receptor (Right).

α4β2-nAChR = target: T2, α4β2-nAChR (Homo sapiens, UniProt P17787+P43681); assay: Patch clamp of HEK293 cells transiently expressing nAChR α4β2; type: cell-based; details: four-parameter logistic fit; read-out: IC50, inhibition of α4β2-nAChR
T2 construct: expressed in transfected cells; host or cells: HEK293 (transient)
T2 sequence (P43681 29-627 limits assumed): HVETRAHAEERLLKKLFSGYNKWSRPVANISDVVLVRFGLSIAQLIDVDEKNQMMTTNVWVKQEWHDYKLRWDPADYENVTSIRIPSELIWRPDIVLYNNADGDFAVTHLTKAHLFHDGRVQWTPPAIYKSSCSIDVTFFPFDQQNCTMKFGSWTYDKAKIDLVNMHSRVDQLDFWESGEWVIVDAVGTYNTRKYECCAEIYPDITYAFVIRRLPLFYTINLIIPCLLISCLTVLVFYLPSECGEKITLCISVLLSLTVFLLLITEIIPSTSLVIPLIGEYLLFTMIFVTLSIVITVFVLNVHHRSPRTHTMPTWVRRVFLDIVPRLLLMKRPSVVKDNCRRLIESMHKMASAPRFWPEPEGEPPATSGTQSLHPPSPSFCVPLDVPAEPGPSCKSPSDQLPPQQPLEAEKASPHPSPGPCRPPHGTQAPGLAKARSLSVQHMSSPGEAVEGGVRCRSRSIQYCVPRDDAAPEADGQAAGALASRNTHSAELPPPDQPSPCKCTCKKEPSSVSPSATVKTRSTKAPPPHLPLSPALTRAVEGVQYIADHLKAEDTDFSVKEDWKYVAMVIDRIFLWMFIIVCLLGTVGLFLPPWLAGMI
T2 sequence (P17787 26-502): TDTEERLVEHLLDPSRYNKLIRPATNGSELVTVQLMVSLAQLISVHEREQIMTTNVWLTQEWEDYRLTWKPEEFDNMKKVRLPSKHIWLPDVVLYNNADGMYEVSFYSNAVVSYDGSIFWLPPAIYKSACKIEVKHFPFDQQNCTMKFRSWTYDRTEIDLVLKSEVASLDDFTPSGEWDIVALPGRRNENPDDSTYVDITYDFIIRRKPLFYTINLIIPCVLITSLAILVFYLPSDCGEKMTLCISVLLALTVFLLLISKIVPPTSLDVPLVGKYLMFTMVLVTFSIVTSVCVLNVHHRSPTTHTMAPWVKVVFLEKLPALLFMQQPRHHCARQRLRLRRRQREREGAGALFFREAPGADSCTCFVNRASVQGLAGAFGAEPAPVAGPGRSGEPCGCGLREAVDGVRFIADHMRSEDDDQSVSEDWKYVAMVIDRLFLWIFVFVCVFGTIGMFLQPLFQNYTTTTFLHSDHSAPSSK
Protocol: The patch clamp recording was performed on the third or fourth day after transfection based on the expression level of co-transfected GFP gene. Detailed description of the transfection procedures can be found in the Supporting information.
nAChR α4β2: HEK293 cells were seeded on poly-D-lysine-coated coverslips placed in a 24-well plate at a density of 8×10^3 cells per well. Cells were transfected with nAChR α4/nAChR β2/GFP with the ratio 2:2:1. The X-tremeGENE HP DNA (Roche) was used for transfection, and the ratio of plasmid to transfection reagent was 1 μg: 2 μL.

Cynologous monkey = assay: GLP acute toxicology study, iv infusion; type: in vivo
Protocol: The acute toxicology study of CN-105 was carried out at the facility of CTI Biotechnology (China) in accordance with GLP guidelines of the National Medical Product Administration (NMPA) of China. Briefly, six Cynologous (Cyn) monkeys were assigned to three dosing groups (n = 2/group, M:F= 1:1). The animals were given an iv. infusion of saline (Group 1), 25 mg/kg CN-105 (Group 2) or 100 mg/kg CN-105 (Group 3) twice a day. The infusion volume was 20mL/kg, while the infusion rate was 30min. Forty SD rats were assigned to four dosing groups (n = 10/group, M:F= 1:1) and were given an iv. injection of saline (Group 1), 15 mg/kg CN-105 (Group 2), 30 mg/kg CN-105 (Group 3) or 45 mg/kg CN-105 (Group 4) twice a day. The infusion volume was 5mL/kg, while the infusion rate was 10min. Animals were monitored for a variety of behavioral, physiological, histological and serological endpoints.

NMDA receptor = assay: Glutamate-induced currents in HEK293 cells stably expressing NMDA receptor; type: cell-based
Description: as §1

α1β1δε-nAChR = target: T3, α1β1δε-nAChR (Homo sapiens, UniProt P02708+P11230+Q04844+Q07001); assay: Electrophysiology of oocytes injected with nAChR α, β, δ and ε cRNA; type: cell-based
T3 construct: expressed in transfected cells
T3 sequence (P02708 21-457): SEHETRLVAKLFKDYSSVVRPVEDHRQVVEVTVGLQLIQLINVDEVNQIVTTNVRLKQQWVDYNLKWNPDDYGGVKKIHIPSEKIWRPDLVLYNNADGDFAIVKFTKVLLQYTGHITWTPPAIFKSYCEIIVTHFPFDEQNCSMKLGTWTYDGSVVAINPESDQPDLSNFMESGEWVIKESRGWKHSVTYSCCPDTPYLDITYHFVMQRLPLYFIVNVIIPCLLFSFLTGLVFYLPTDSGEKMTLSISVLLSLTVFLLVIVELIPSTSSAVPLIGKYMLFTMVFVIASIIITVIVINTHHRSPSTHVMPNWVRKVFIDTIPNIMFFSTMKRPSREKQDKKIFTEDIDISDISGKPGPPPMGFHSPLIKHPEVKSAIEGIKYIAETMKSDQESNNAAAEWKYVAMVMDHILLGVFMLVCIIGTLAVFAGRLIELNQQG
T3 sequence (P11230 24-501): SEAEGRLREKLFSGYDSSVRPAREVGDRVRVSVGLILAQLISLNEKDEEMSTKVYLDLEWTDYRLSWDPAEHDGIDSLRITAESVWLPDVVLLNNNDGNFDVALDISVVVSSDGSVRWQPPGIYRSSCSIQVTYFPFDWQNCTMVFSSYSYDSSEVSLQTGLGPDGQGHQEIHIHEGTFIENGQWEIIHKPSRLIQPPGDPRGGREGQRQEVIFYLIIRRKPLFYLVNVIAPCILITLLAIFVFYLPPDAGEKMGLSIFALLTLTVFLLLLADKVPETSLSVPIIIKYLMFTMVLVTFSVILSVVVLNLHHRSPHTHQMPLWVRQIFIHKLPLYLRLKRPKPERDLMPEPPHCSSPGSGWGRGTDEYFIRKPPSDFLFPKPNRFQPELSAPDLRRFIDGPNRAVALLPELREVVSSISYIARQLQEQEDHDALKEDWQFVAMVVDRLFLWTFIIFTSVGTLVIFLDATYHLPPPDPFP
T3 sequence (Q07001 22-517): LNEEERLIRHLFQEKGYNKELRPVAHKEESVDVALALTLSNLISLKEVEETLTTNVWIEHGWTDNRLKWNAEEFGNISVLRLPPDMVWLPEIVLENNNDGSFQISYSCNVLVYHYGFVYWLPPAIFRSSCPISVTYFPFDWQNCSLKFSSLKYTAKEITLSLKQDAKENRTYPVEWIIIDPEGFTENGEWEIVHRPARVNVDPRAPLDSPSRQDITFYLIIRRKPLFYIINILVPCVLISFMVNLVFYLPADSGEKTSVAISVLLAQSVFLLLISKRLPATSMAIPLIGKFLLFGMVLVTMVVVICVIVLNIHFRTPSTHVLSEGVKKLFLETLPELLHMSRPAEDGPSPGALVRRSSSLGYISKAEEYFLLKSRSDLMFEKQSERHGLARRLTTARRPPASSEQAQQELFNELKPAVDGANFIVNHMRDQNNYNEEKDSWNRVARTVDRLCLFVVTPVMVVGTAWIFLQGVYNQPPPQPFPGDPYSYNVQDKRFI
T3 sequence (Q04844 21-493): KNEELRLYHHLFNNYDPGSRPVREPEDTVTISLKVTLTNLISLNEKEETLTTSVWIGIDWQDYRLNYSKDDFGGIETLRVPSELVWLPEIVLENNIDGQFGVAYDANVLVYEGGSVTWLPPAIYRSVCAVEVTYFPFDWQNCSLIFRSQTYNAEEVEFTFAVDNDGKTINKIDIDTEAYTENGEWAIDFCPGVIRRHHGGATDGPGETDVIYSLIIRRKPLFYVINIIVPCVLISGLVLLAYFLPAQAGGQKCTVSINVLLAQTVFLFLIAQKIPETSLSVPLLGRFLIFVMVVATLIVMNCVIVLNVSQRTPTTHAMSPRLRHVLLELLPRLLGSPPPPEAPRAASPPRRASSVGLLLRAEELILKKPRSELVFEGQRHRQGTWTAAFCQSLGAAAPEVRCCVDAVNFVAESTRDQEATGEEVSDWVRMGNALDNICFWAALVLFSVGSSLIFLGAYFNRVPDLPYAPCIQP

α7-nAChR [8] = target: T1, α7-nAChR

Molecule: CC(=O)N[C@@H](C)C(=O)N[C@@H](CO)C(=O)N[C@@H](CCCNC(=N)N)C(=O)N[C@@H](CCCNC(=N)N)C(=O)N[C@@H](CCCNC(=N)N)C(N)=O [Ac-ASRRR-NH2] (Ac-ASRRR-NH2)
- %Inhibition of α7-nAChR (α7-nAChR [1]): 7.4%

Molecule: CSCC[C@H](NC(C)=O)C(=O)N[C@@H](CO)C(=O)N[C@@H](CCCNC(=N)N)C(=O)N[C@@H](CCCNC(=N)N)C(=O)N[C@@H](CCCNC(=N)N)C(N)=O [Ac-MSRRR-NH2] (Ac-MSRRR-NH2)
- %Inhibition of α7-nAChR (α7-nAChR [1]): 38.3%

Molecule: CC(=O)N[C@@H](CCCNC(=N)N)C(=O)N[C@@H](CO)C(=O)N[C@@H](CCCCN)C(=O)N[C@@H](CCCNC(=N)N)C(=O)N[C@@H](CCCNC(=N)N)C(N)=O [Ac-RSKRR-NH2] (Ac-RSKRR-NH2)
- %Inhibition of α7-nAChR (α7-nAChR [1]): 9.3%

Molecule: CC(=O)N[C@H](C(=O)N[C@@H](CS)C(=O)N[C@@H](CCCNC(=N)N)C(=O)N[C@@H](CCCNC(=N)N)C(=O)N[C@@H](CCCNC(=N)N)C(N)=O)C(C)C [Ac-VCRRR-NH2] (Ac-VCRRR-NH2)
- %Inhibition of α7-nAChR (α7-nAChR [1]): 5.9%

Molecule: CC(=O)N[C@H](C(=O)N[C@@H](CO)C(=O)N[C@@H](CCCCN)C(=O)N[C@@H](CCCCN)C(=O)N[C@@H](CCCNC(=N)N)C(N)=O)C(C)C [Ac-VSKKR-NH2] (Ac-VSKKR-NH2)
- %Inhibition of α7-nAChR (α7-nAChR [1]): 48.9%

Molecule: CC(=O)N[C@H](C(=O)N[C@@H](CO)C(=O)N[C@@H](CCCNC(=N)N)C(=O)N[C@@H](CCCNC(=N)N)C(=O)N[C@@H](CCCNC(=N)N)C(N)=O)C(C)C [CN-105, Ac-VSRRR-NH2] (Ac-VSRRR-NH2)
- Observation after removal of isoflurane anaesthesia (C57BL6 mice; 50 mg/kg, intubated and mechanically ventilated): extended sedation
- Symptoms at lethal dose (C57BL6 mice; C57BL6 mice, 25 mg/kg tail vein): spasm and respiratory suppression
- Mortality under intubation and mechanical ventilation (C57BL6 mice; C57BL6 mice, 50 mg/kg, mechanical ventilation with isoflurane anaesthesia): not associated with mortality
- LD80 (C57BL6 mice; C57BL6 mice, single tail vein injection, autonomous respiration): 25 mg/kg
- Kel ([2]; 0.1 mg/kg): 2.09 ± 0.258 h⁻¹
- Kel ([2]; 0.3 mg/kg): 1.73 ± 0.203 h⁻¹
- Kel ([2]; 1 mg/kg): 1.13 ± 0.106 h⁻¹
- Kel ([2]; 3 mg/kg): 0.823 ± 0.204 h⁻¹
- Kel ([3]; 0.1 mg/kg): 0.566 ± 0.156 h⁻¹
- Kel ([3]; 0.5 mg/kg): 0.481 ± 0.058 h⁻¹
- Kel ([3]; 2.5 mg/kg): 0.445 ± 0.054 h⁻¹
- Spontaneous EPSC (sEPSC) frequency ([4]; rat hippocampal brain slice, CN-105 200 μM as printed in Figure 3 legend): attenuation
- Evoked EPSC mediated by NMDA receptor versus control ([4]; rat hippocampal brain slices, holding +50 mV): significantly lower
- Evoked EPSC mediated by AMPA receptor versus control ([4]; rat hippocampal brain slices, holding -70 mV): significantly lower
- NMDA receptor-mediated EPSC with tetrodotoxin (mEPSC) ([4]; tetrodotoxin added to block all AP firings): no longer able to affect
- AUC(0-t) (in vivo [5]; 0.1 mg/kg): 348 ± 33.7 ng·h/mL
- Cmax (in vivo [5]; 0.1 mg/kg): 320 ± 20.2 ng/mL
- Tmax (in vivo [5]; 0.1 mg/kg): 30 min
- Vd (in vivo [5]; 0.1 mg/kg): 0.564 ± 0.271 L/kg
- clearance (in vivo [5]; 0.1 mg/kg): 4.75 mL/min/kg
- half-life (in vivo [5]; 0.1 mg/kg): 82.8 ± 39.6 min
- AUC(0-t) (in vivo [5]; 0.5 mg/kg): 1650 ± 209 ng·h/mL
- Cmax (in vivo [5]; 0.5 mg/kg): 1500 ± 251 ng/mL
- Tmax (in vivo [5]; 0.5 mg/kg): 30 min
- Vd (in vivo [5]; 0.5 mg/kg): 0.642 ± 0.086 L/kg
- clearance (in vivo [5]; 0.5 mg/kg): 5.12 mL/min/kg
- half-life (in vivo [5]; 0.5 mg/kg): 87.6 ± 10.3 min
- AUC(0-t) (in vivo [5]; 2.5 mg/kg): 8300 ± 1200 ng·h/mL
- Cmax (in vivo [5]; 2.5 mg/kg): 7460 ± 1190 ng/mL
- Tmax (in vivo [5]; 2.5 mg/kg): 30 min
- Vd (in vivo [5]; 2.5 mg/kg): 0.691 ± 0.107 L/kg
- clearance (in vivo [5]; 2.5 mg/kg): 5.08 mL/min/kg
- half-life (in vivo [5]; 2.5 mg/kg): 94.8 ± 12 min
- AUC(0-t) (in vivo [6]; 0.1 mg/kg): 125 ± 14.3 ng·h/mL
- C0 (in vivo [6]; 0.1 mg/kg): 560 ± 181 ng/mL
- Cmax (in vivo [6]; 0.1 mg/kg): 410 ± 90.5 ng/mL
- Tmax (in vivo [6]; 0.1 mg/kg): 2.3 ± 0.948 min
- Vd (in vivo [6]; 0.1 mg/kg): 0.385 ± 0.0711 L/kg
- clearance (in vivo [6]; 0.1 mg/kg): 13.2 mL/min/kg
- half-life (in vivo [6]; 0.1 mg/kg): 20.2 ± 2.52 min
- AUC(0-t) (in vivo [6]; 0.3 mg/kg): 504 ± 56.6 ng·h/mL
- C0 (in vivo [6]; 0.3 mg/kg): 2250 ± 463 ng/mL
- Cmax (in vivo [6]; 0.3 mg/kg): 1570 ± 211 ng/mL
- Tmax (in vivo [6]; 0.3 mg/kg): 2 min
- Vd (in vivo [6]; 0.3 mg/kg): 0.342 ± 0.0363 L/kg
- clearance (in vivo [6]; 0.3 mg/kg): 9.8 mL/min/kg
- half-life (in vivo [6]; 0.3 mg/kg): 24.3 ± 3.3 min
- AUC(0-t) (in vivo [6]; 1 mg/kg): 1800 ± 192 ng·h/mL
- C0 (in vivo [6]; 1 mg/kg): 7680 ± 1740 ng/mL
- Cmax (in vivo [6]; 1 mg/kg): 5320 ± 906 ng/mL
- Tmax (in vivo [6]; 1 mg/kg): 2 min
- Vd (in vivo [6]; 1 mg/kg): 0.5 ± 0.085 L/kg
- clearance (in vivo [6]; 1 mg/kg): 9.28 mL/min/kg
- half-life (in vivo [6]; 1 mg/kg): 37.2 ± 3.87 min
- AUC(0-t) (in vivo [6]; 3 mg/kg): 5920 ± 508 ng·h/mL
- C0 (in vivo [6]; 3 mg/kg): 24000 ± 2360 ng/mL
- Cmax (in vivo [6]; 3 mg/kg): 17000 ± 1400 ng/mL
- Tmax (in vivo [6]; 3 mg/kg): 2 min
- Vd (in vivo [6]; 3 mg/kg): 0.645 ± 0.137 L/kg
- clearance (in vivo [6]; 3 mg/kg): 8.48 mL/min/kg
- half-life (in vivo [6]; 3 mg/kg): 52.8 ± 10.2 min
- Density of viable neurons (NeuN+ cells) ([7]; 1 mm2 area at infarct margin): higher
- Number of β3-GABAAR+ cells at infarct margin ([7]; 1 mm2 area): unaffected
- Density of α7-nAChR+ cells at infarct margin versus vehicle ([7]; primary somatosensory cortex, 1 mm2 area): higher density
- Infarct volume ([7]; 0.1 to 0.4 mg/kg single iv 30 min after reperfusion): significantly reduced
- Effect on ACh induced current (α7-nAChR [1]; 10 μM CN-105, HEK293 overexpressing α7-nAChR): strongly suppressed
- IC50 (α7-nAChR [1]; four-parameter logistic fit, read-out: IC50, inhibition of α7-nAChR): 31 nM
- %Inhibition of α7-nAChR (α7-nAChR [1]): 61.4%
- Voltage of maximal inhibition (α7-nAChR [1]; voltage dependency, CN-105 40 nM): –80 mV
- Direct effect on glutamate-induced currents, AMPA receptor (AMPA receptor): did not directly inhibit
- IC50 (α4β2-nAChR): 500 nM
- Time of gradual recovery to normal activity (about two serum clearance half-lives) (Cynologous monkey; supratherapeutic dosing): ~4 h
- Symptoms after supratherapeutic dosing (Cynologous monkey; supratherapeutic iv dosing): mydriasis and ptosis
- Direct effect on glutamate-induced currents, NMDA receptor (NMDA receptor): did not directly inhibit
- IC50 (α1β1δε-nAChR): 2100 nM

Molecule: CC1=NN(c2ccccc2)C(=O)C1 [edaravone, reference compound]
- Infarct volume ([7]; edaravone 6 mg/kg single iv 30 min after reperfusion): similar

Molecule: apoE130‐149 (peptide)
- IC50 of inhibition of α7‐nAChR current (electrophysiology); given only as the concentration used, close to the IC50 (α7-nAChR [8]): 500 nM

Molecule: Ac-VSRRR-NH2 [CN‐105]
- IC50 of inhibition of α7‐nAChR current (electrophysiology); given only as the concentration used, close to the IC50 (α7-nAChR [8]): 40 nM
